# In patent publication US20090311723A1, “FLUORESCENCE-BASED ASSAY FOR MONOACYLGLYCEROL LIPASE COMPATIBLE WITH INHIBITOR SCREENING” (WYETH, priority 2007, published 2009):
# T1: recombinant human MGL protein (Homo sapiens, UniProt Q99685)
# T1 construct: a mixture of forward and reverse primers spanning the entire coding region; made in house; host or cells: E. coli BL21
# T1 sequence (Q99685 1-303): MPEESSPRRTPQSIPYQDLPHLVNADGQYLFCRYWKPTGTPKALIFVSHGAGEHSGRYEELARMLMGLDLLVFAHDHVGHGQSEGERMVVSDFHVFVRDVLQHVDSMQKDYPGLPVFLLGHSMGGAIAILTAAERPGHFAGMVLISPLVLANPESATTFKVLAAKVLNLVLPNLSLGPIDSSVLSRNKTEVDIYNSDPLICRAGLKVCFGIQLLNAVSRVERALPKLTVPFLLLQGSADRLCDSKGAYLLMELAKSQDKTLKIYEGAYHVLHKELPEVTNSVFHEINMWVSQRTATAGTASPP
# T2: MGL (Rattus norvegicus, UniProt Q8R431)
# T2 sequence (Q8R431 1-303): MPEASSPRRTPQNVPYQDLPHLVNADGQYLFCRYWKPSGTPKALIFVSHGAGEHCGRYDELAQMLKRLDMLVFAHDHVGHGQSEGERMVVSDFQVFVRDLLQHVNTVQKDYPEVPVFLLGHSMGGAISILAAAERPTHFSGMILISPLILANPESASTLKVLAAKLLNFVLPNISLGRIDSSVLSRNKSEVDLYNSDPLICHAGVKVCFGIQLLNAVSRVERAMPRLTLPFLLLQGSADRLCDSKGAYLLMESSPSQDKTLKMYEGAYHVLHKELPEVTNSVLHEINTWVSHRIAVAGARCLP
# What was measured:
# [1] = Stability of 7-HCA in assay buffer over time; type: physicochemical; conditions: 25° C.
# Experimental: The stability of 7-HCA in assay buffer was monitored over time and found to be stable for at least 5 hours at 25° C.
# [2] = target: T1, recombinant human MGL protein; test: Fluorescence assay of MGL inhibition with 7-HCA as substrate; type: biochemical; conditions: for IC50: 3 ng MGL, 10 μM 7-HCA, pH 8, 25° C., 60 minutes
# Experimental: For measuring MGL inhibition by compounds, 3 ng protein per assay were incubated with indicated concentrations of the compound in the presence of 10 mM 7-HCA for 60 minutes. The reactions were stopped and processed as described above. Results are presented as the mean±S.E. of triplicate measurements from at least two independent experiments. The IC50 values were calculated by […]™ Prism 3.02 program using a sigmoidal dose-response equation.
# Inhibition of MGL activity by URB602 was studied by treating 3 ng of MGL protein with increasing concentrations of URB602 with 7-HCA as substrate at pH 8, and 25° C., for 60 minutes in a total volume of 50 μl.
# According to FIG. 7, the assay was carried out by incubating 3 ng of MGL protein with 10 μM 7-HCA and indicated concentrations of compounds in 50 mM HEPES, pH 8, 1 mM EDTA and 10% DMSO, at 25° C. for 60 minutes. The percent inhibition of MGL activity was plotted against compound concentration, and the IC50 was calculated by fitting the curve to a non-linear regression equation using […]™ Prism 3.02. Each data point represents mean±SD (n=3) from at least 2 individual experiments.
# MGL [3] = target: T2, MGL; design: from tissue; host or cells: rat brain, periaqueductal grey, in vivo (reported from Hohmann 2005); conditions: micro-injection into periaqueductal grey, blocked by CB1 antagonist SR141716; cited from earlier work
# MGL [4] = target: T2, MGL; conditions: Makara 2005; later demonstrated to be false positive (impurity); read-out: IC50 of MGL previously reported; cited from earlier work
# [5] = substrate: C=CCCCCC(=O)Oc1ccc2ccc(=O)oc2c1; test: Rate of hydrolysis of fluorogenic substrates by MGL (Michaelis-Menten kinetics, 7-HC fluorescence); type: biochemical, human; conditions: other: 3 ng/well MGL, 10% DMSO, pH 8.0, room temperature, read after 10 minutes, ND = not detectable activity
# Experimental: (§1) The assay was performed in a 384-well black plate (NUNC) in a total volume of 50 μl. A typical assay consisted of 3 ng of MGL protein, 10 mM 7-HCA substrate (prepared in DMSO) in assay buffer consisting of 50 mM HEPES, pH 8, 1 mM EDTA, and […] of inhibitor solution or DMSO (10% final concentration). The components were mixed and incubated on a shaker for 10-60 min and the plate was read in a fluorescence plate reader (SPECTRAMAX™-Gemini; Ex: 355 nm; Em: 460 nm). The reaction was carried out at 25° C., and the fluorescence was monitored in the kinetic mode. The fluorescence units were converted to amount of product based on the standard curve generated with 7-HC. The data were analyzed using GRAPHPAD™ Prism Version 3.02. The observed rate constants (apparent KM) were calculated using GRAPHPAD™ Prism 3.02 based on a Michaelis-Menten (one site binding hyperbola) equation Y=BmaxX/[Kd+X].
# (§2) Table 3, shown below, depicts rates of hydrolysis for MGL with representative fluorogenic substrates. Rates were measured at reactions containing 3 ng/well MGL protein, a series of concentrations of above compounds in 10% DMSO, pH 8.0, and room temperature. The 7-HC fluorescence (λex=355 nm, λem=460 nm) was read after 10-minutes. The data were analyzed and the Vmax and Km calculated using the Michaelis-Menten equation. *ND means “not detectable activity.”
# (§3) The kinetic constants, KM (apparent) and Vmax were calculated by determining the MGL activity with increasing substrate concentrations. 3 ng MGL protein were incubated with increasing 7-HCA concentrations, at pH 8, 25° C., for 10 minutes in a 384-well black plate, in a total volume of 50 μl. Specific activity of MGL was plotted against the substrate concentration and the data was fit to a non-linear regression equation (FIG. 6). […] The Lineweaver-Burk plot is shown as an insert within FIG. 6.
# (§4) According to FIG. 6, a 50 μl MGL reaction, containing 3 ng/well MGL protein, the indicated concentrations of 7-HCA and 10% DMSO, was performed at room temperature. The 7-HC fluorescence (λex=355 nm, λem=460 nm) was read after 10-minutes. The data were analyzed and the Vmax and KM calculated using the Michaelis-Menten equation. A Lineweaver-Burk plot of 7-HCA hydrolysis by substrate is also shown.
# [6] = substrate: CCCCC/C=C\C/C=C\C/C=C\C/C=C\CCCC(=O)Oc1ccc2ccc(=O)oc2c1; test: as above; type: biochemical, human; conditions: other: 3 ng/well MGL, 10% DMSO, pH 8.0, room temperature, read after 10 minutes, ND = not detectable activity
# Experimental: as §1, §2, §3, §4
molecule,measurement,setting,value
"CCCCC/C=C\C/C=C\C/C=C\C/C=C\CCCC(=O)Oc1ccc2ccc(=O)oc2c1 [7-HCA, 7-Hydroxycoumarinyl-arachidonate]",stability in assay buffer,[1],at least 5 hours
O=C(Nc1cccc(-c2ccccc2)c1)OC1CCCCC1 [URB602],IC50,[2],3600 nM
same,IC50,[2]; listed as URB-602,3100 nM
same,effect on stress-induced antinociception,MGL [3],enhanced stress-induced antinociception
"CCCCC/C=C\C/C=C\C/C=C\C/C=C\CCCCN1C(=O)C=CC1=O [N-Arachidonyl Maleimide (NAM), N-Arachidonyl Maleimide]",IC50,[2],155 nM
Cc1ccc(Nc2nc3ccc(C)cc3c(=O)o2)cc1 [URB754],inhibition of MGL activity (negative control),[2]; concentrations up to 100 μM,failing to inhibit MGL activity
same,IC50,MGL [4],50 nM
"recombinant human MGL protein (Homo sapiens) (protein, a mixture of forward and reverse primers spanning the entire coding region; made in house; host or cells: E. coli BL21) MPEESSPRRTPQSIPYQDLPHLVNADGQYLFCRYWKPTGTPKALIFVSHGAGEHSGRYEELARMLMGLDLLVFAHDHVGHGQSEGERMVVSDFHVFVRDVLQHVDSMQKDYPGLPVFLLGHSMGGAIAILTAAERPGHFAGMVLISPLVLANPESATTFKVLAAKVLNLVLPNLSLGPIDSSVLSRNKTEVDIYNSDPLICRAGLKVCFGIQLLNAVSRVERALPKLTVPFLLLQGSADRLCDSKGAYLLMELAKSQDKTLKIYEGAYHVLHKELPEVTNSVFHEINMWVSQRTATAGTASPP",Km,[5],9.3 µM
same,Vmax,[5],1.3 µmol/min/mg
same,Km,[6],9.8 µM
same,Vmax,[6],1.7 µmol/min/mg
